Experimental data reported in ChEMBL document CHEMBL1125674, “Crystal, solution, and molecular modeling structural properties and muscarinic antagonist activity of azaprophen” (J Med Chem, 1991).

Experiments:
[1] = (§1) Inhibition of [3H]pirenzepine binding towards muscarinic acetylcholine receptor in rat brain.
[2] = Inhibition of [3H]QNB binding towards muscarinic acetylcholine receptor in rat heart
[3] = Inhibition of [3H]QNB binding towards muscarinic acetylcholine receptor in rat brain; format: tissue-based
[4] = target: Muscarinic acetylcholine receptor M3 (Homo sapiens, UniProt P20309); test: Inhibition of [3H]QNB binding to CHO cells bearing transfected muscarinic acetylcholine receptor M3; format: cell-based, Cricetulus griseus
[5] = target: T1, Muscarinic acetylcholine receptors; M1 & M2 (Homo sapiens, UniProt P11229+P08172); test: Inhibition of [3H]QNB binding towards muscarinic acetylcholine receptor in guinea pig ileum.; format: tissue-based, Cavia porcellus; settings: target entry is the homologue from another species
T1 sequence (P11229 whole entry): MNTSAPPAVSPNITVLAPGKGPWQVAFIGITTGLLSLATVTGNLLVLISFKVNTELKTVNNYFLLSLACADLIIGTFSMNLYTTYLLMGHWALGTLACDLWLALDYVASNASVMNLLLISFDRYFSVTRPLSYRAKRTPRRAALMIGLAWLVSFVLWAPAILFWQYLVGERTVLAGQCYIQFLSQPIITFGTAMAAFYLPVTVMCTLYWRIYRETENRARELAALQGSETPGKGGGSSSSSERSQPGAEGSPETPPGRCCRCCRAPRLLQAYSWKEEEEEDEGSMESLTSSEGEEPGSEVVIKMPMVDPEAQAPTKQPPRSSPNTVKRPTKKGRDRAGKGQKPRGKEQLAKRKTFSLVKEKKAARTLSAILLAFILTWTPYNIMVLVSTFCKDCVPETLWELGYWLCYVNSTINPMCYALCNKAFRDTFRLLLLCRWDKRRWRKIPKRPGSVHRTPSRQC
T1 sequence (P08172 whole entry): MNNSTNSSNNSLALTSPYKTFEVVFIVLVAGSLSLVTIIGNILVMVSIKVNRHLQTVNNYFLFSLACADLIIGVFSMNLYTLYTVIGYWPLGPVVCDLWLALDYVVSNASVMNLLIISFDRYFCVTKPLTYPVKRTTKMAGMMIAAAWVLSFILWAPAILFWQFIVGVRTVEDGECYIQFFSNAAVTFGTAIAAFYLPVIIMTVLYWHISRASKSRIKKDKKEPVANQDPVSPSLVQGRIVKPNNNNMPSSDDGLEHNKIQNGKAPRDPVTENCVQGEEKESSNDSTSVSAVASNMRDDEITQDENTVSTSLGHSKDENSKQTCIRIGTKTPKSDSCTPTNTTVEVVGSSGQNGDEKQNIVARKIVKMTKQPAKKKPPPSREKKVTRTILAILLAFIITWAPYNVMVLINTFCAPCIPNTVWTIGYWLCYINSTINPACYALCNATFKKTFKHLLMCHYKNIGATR

[6] = as §1; format: tissue-based
[7] = target: T2, Muscarinic acetylcholine receptor M1 (Homo sapiens, UniProt P11229); test: Inhibition of [3H]QNB binding to CHO cells bearing transfected muscarinic acetylcholine receptor M1; format: cell-based, Cricetulus griseus
T2 sequence (P11229 whole entry): T1 sequence (P11229 whole entry)

Chain of Muscarinic acetylcholine receptor M3 (P20309 whole entry, looked up): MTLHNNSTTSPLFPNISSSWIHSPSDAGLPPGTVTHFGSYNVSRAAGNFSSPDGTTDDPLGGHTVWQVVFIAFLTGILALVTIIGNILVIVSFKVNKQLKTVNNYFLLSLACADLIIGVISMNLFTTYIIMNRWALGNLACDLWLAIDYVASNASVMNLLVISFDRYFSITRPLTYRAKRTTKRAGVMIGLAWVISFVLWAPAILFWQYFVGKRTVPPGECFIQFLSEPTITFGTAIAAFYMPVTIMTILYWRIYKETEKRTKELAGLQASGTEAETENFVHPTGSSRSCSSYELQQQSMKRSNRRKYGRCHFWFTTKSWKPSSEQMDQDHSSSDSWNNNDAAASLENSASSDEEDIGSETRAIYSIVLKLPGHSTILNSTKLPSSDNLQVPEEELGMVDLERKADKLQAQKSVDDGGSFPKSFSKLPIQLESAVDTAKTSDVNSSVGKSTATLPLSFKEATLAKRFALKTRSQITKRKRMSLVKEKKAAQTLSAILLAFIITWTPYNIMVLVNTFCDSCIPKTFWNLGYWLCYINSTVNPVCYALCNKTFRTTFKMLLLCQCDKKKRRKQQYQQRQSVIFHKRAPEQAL

SMILES | Ki [1] [nM] | Ki [2] [nM] | Ki [3] [nM] | Ki [4] [nM] | Ki [5] [nM] | Ki [6] [nM] | Ki [7] [nM]
CN1[C@@H]2CC[C@H]1C[C@@H](OC(=O)C(CO)c1ccccc1)C2 (stereo partly drawn) [ATROPINE] | 0.545 | 0.545 | – | – | – | – | –
CN1CC2CC(OC(=O)C(C)(c3ccccc3)c3ccccc3)CC1C2 (stereo not drawn) [AZAPROPHEN] | – | 0.13 | 0.118 | 0.472 | 0.279 | 0.196 | 0.088
